# From PubChem BioAssay (NCI)
#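 Grown in 96-well plates, cells were treated for 48 hours with each compound at five concentrations. Insufficient inhibition: endpoint recorded as highest concentration tested. TGI marks complete inhibition of growth.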
# Key:
# Test in all cases: NCI anticancer screen, dose series, 48 h
# RPMI-8226 leukemia = test system: RPMI-8226 leukemia
# PC-3 prostate = test system: PC-3 prostate
# NCI-H23 lung = test system: NCI-H23 lung
# M14 melanoma = test system: M14 melanoma
# NCI-H226 lung = test system: NCI-H226 lung
# OVCAR-5 ovarian = test system: OVCAR-5 ovarian
# TK-10 renal = test system: TK-10 renal
# MOLT-4 leukemia = test system: MOLT-4 leukemia
# COLO 205 colon = test system: COLO 205 colon
# 786-0 renal = test system: 786-0 renal
# SF-295 CNS = test system: SF-295 CNS
SMILES,TGI (RPMI-8226 leukemia) [µM],TGI (PC-3 prostate) [µM],TGI (NCI-H23 lung) [µM],TGI (M14 melanoma) [µM],TGI (NCI-H226 lung) [µM],TGI (OVCAR-5 ovarian) [µM],TGI (TK-10 renal) [µM],TGI (MOLT-4 leukemia) [µM],TGI (COLO 205 colon) [µM],TGI (786-0 renal) [µM],TGI (SF-295 CNS) [µM]
Cc1ccc(C(=O)N/N=C(\N=Nc2ccccc2C(=O)O)c2ccc(N(C)C)cc2)cc1,> 100,> 100,> 100,> 100,> 100,> 100,> 100,> 100,> 100,> 100,> 100
CN1C/C(=C\c2cccs2)C(=O)/C(=C/c2cccs2)C1,32.3,> 100,> 100,82.9,> 100,66.8,> 100,47.2,91.7,49.2,> 100
CC(C)(C)OC(=O)NNCC(O)COc1ccccc1 (stereo unspecified),> 100,> 100,> 100,> 100,> 100,> 100,> 100,> 100,> 100,> 100,> 100
Cc1ccc(C)c2c1n1c(=O)n(C)c(=O)n21,> 100,> 100,> 100,> 100,> 100,> 100,> 100,–,> 100,> 100,> 100
CC(C)=CCC[C@@H](C)C1=C(O)C(Nc2ccccc2)=C(C)C(=O)C1=O,> 73.3,> 100,98.7,34.9,> 73.4,> 100,> 100,> 72.2,> 61.8,> 100,32.4
NC(=S)NS(=O)(=O)c1ccc(Cl)cc1,> 100,> 100,> 100,> 100,> 100,> 100,> 100,> 100,> 100,> 100,> 100
COc1cccc(N(CN2C(=O)CCC2OC)C(C)=O)c1 (stereo unspecified),> 100,> 100,> 100,> 100,> 100,> 100,> 100,> 100,> 100,> 100,> 100
CC1=NN2CCC(=O)N=C2S1,> 100,> 100,> 100,> 100,> 100,> 100,> 100,> 100,> 100,> 100,> 100
CC1=NN(c2nc(N)nc(-c3cc4ccccc4oc3=N)n2)C(C)(C)C1,42.6,33,29.7,36,30.4,60.1,38.4,34.6,31.1,29.8,32.6
CCN(CCC#N)C(=O)Nc1ccccc1,> 100,> 100,> 100,> 100,> 100,> 100,> 100,> 100,> 100,> 100,> 100
CCOC(=O)C1=C(C)N(Cc2ccccc2)C2(O)C(OC)CC(=O)C3C(=O)N(c4ccccc4)C(=O)C132 (stereo unspecified),> 100,50.8,> 100,> 100,37.5,> 100,53,81.6,> 100,> 100,47.5
COC(=O)C(CNC(=O)/C=C/c1ccc(OC(C)=O)c(OC(C)=O)c1)NC(=O)/C=C/c1ccc(OC(C)=O)c(OC(C)=O)c1 (stereo unspecified),> 100,> 100,> 100,> 100,> 100,> 100,> 100,81.5,> 100,> 100,> 100
CCOC(=O)Cc1cc(=O)[nH]c(-n2[nH]c(C)c(CCO)c2=O)n1,> 100,> 100,> 100,> 100,> 100,> 100,> 100,–,> 100,> 100,> 100
O=C1c2cc3ncsc3cc2C(=O)c2c(O)ccc(O)c21,> 100,> 100,> 100,> 100,> 100,> 100,> 100,> 100,> 100,> 100,> 100
COC(=O)/C=C\C(C#N)(C#N)N=Cc1ccc(Br)cc1,5.74,32.4,49.5,22.6,20.6,35.8,6.59,> 22.4,9.55,> 48.9,34.7
Cc1nccn1S(=O)(=O)c1ccc(Cl)cc1,> 100,> 100,> 100,> 100,> 100,> 100,> 100,> 100,40.2,> 100,> 100
CCN(CC)C(=O)c1cc([N+](=O)[O-])c(=O)n2c1[nH]c1ccccc12,> 100,> 100,> 100,> 100,> 100,> 100,> 100,> 100,> 100,> 100,> 100
O=C(CN1CCN(c2ccccn2)CC1)N1CCCn2c1nc1ccccc1c2=O,> 100,> 100,> 100,> 100,> 100,> 100,> 100,> 100,> 100,> 100,> 100

SMILES,TGI (RPMI-8226 leukemia) [µM],TGI (PC-3 prostate) [µM],TGI (NCI-H23 lung) [µM],TGI (M14 melanoma) [µM],TGI (NCI-H226 lung) [µM],TGI (OVCAR-5 ovarian) [µM],TGI (TK-10 renal) [µM],TGI (MOLT-4 leukemia) [µM],TGI (COLO 205 colon) [µM],TGI (786-0 renal) [µM],TGI (SF-295 CNS) [µM]
OCC(S)CS.[Bi] (stereo unspecified),28.3,27.3,52.2,29.5,> 100,42.5,32.4,–,30,39.3,> 100
N#Cc1c(N2CCCC2)nsc1Nc1ccccc1,> 100,> 100,> 100,> 100,> 100,> 100,> 100,> 100,> 100,> 100,> 100
Cc1cc(OCc2nnc3n2N=C(c2cc(F)c(Cl)cc2Cl)/C(=C/c2ccc(-c4ccc(Cl)cc4)o2)S3)ccc1Cl,30.2,> 50,> 50,> 50,> 50,> 50,> 50,> 50,> 50,> 50,> 50
NNS(=O)(=O)c1ccc(/C=C2\NC(=O)NC2=O)cc1,> 100,> 100,> 100,> 100,> 100,> 100,> 100,> 100,> 100,> 100,> 100
Cc1ccsc1/C=N/Nc1cc(C)c2ccccc2n1,8.9,51.4,31.3,34.4,37.1,90.3,31.9,35.1,20.9,31.8,37.8
Cn1c(-c2c(C3=CC(=O)N(c4ccccc4)C3=O)c3ccccc3n2C)cc2ccccc21,> 100,> 100,> 100,> 100,> 100,> 100,> 100,> 100,> 100,> 100,> 100
CCCCCCCCCCCCCCCCCCNc1nc(=O)n(C2CC(OP(=O)(O)OCC3OC(n4cc(F)c(=O)[nH]c4=O)CC3O)C(CO)O2)cc1F (stereo unspecified),49.7,> 100,> 100,43.3,> 100,> 100,> 100,41.9,> 100,> 100,38.5
Cc1oc2nc(N(C)C)n3cnnc3c2c1C,> 100,> 100,> 100,> 100,> 100,> 100,> 100,> 100,> 100,> 100,> 100
Nc1ccn(CC(O)c2cc3ccccc3[nH]2)c(=O)n1 (stereo unspecified),> 100,> 100,> 100,> 100,> 100,> 100,> 100,> 100,> 100,> 100,> 100
CCC(C)N1CN(c2ccccc2)C2(CCN(CCCC3(c4ccc(F)cc4)OCCO3)CC2)C1=O (stereo unspecified),4,11.4,18.1,> 35.7,32.7,22.4,20.7,19.5,16.8,13.3,10.6
Fc1ccc2c(c1)nc1n2C(c2c(F)cccc2F)SC1 (stereo unspecified),> 100,> 100,> 100,> 100,> 100,> 100,> 100,69,> 100,> 100,> 100
CC(C)(CO)CNc1cc(Cl)nc(N)n1,> 100,> 100,> 100,–,> 100,> 100,> 100,> 100,> 100,> 100,> 100
CCCCOc1ccc(S(=O)(=O)/N=C(\NO)Nc2ccc(Cl)cc2)cc1,50.9,29.7,29.4,28.8,43.4,33.6,28.7,31.8,35.7,29.2,30.8
O=C(O)C1CSC2(CCCN(Cc3ccccc3)C2)N1 (stereo unspecified),> 34.4,> 100,> 100,> 100,> 100,> 100,> 100,> 59.9,> 100,> 100,> 100
O=C(NNc1nc(-c2ccccc2)cs1)Nc1ccccc1,44.2,39.1,41.2,> 100,46.5,> 100,48.6,> 100,56.4,85,83.6
CNC(=O)C1OC(n2cnc3c(NCc4cccc(I)c4)nc(Cl)nc32)C(O)C1O (stereo unspecified),> 100,24.1,25.5,21.9,23,27,29.8,53.3,82.6,46.8,40.4
O=C1Nc2ccccc2SC1=C(C(=O)c1ccccc1)C(=O)c1ccccc1,> 100,> 100,> 90.8,> 100,> 87.5,> 91.1,> 100,–,> 88,> 100,57.5
CSc1c(C)n([O-])c2cc(Cl)c(Cl)cc2[n+]1=O,34.9,38.9,31.8,45.6,27.1,29.8,35.6,5.43,41.7,33.2,> 100
